Measurements taken from patent publication US12522584B2, “3,4-dihydroisoquinoline compound and use thereof” (CSPC Zhongqi Pharmaceutical Technology (Shijiazhuang) Co., …, priority 2020, dated 2026).
Marks after values point to notes of the source that are not given here.

Columns and labels:
[1] = system: human acute monocytic leukemia cell line MV4-11; experiment: MV4-11 MTT cell growth inhibition; format: cell-based; details: 144 h, MV4-11 cells, MTT on Day 6
Method: The complete medium required for the culture of human acute monocytic leukemia cell line MV4-11 (Shanghai Cell Bank) for experiment was IMDM (Cat NO. 12440-053, gibco) supplemented with 10% FBS (Cat NO. SA311.02, cellmax). The cells were cultured in an incubator at 37° C. with 5% CO2. The experiment reagents included dimethyl sulfoxide (Tianjin Kemiou Chemical Reagent Co., Ltd.) and MTT (THIAZOLYL BLUE TETRAZOLIUM BROMIDE, CAS. NO. 298-93-1, VWR). The control compound GSK3326595 for experiment was homemade or commercially available. The test compound was encapsulated and stored at 4° C.
Dimethyl sulfoxide was used as a vehicle to fully dissolve the test compound, thereby formulating a stock solution at a concentration of 5×10^−2 mol/L. The stock solution was stored at −20° C. With the complete medium as diluent, the test compound was subjected to gradient dilution to afford dilutions at different concentrations for standby application. In a 96-well culture plate, the suspension of the human acute monocytic leukemia cell line MV4-11 in the complete medium, at a volume of 100 μL/well (2×10^3 cells/well), was added. Afterwards, the dilutions at different concentrations of the corresponding test compounds (100 μL/well) were added, respectively. Each of the test compounds was provided with 8 concentration gradients and three replicates were used for each concentration. The plates were incubated in an incubator at 37° C. with 5% CO2. On Day 6, the plate was treated with MTT (20 μL/well) and incubated for 4 h in an incubator at 37° C. with 5% CO2. The supernatant was discarded. Dimethyl sulfoxide (150 μL/well) was added and mixed well by shaking. The OD value at 550 nm was measured with a microplate reader. Wells containing only cell suspensions without the test compounds were control wells, and wells containing only complete media were blank wells. The cell growth inhibition rate was calculated according to the following equation: Inhibition rate=(OD valuecontrol well−OD valuesample well)/(OD valuecontrol well−OD valueblank well)×100%. According to the inhibition rate at each concentration, the half maximal inhibitory concentration IC50 value was calculated using the SPSS software. 2. Enzymatic Experiment

[2] = in vivo; details: male, SD, rat, po, 25 mg/kg
Method: SD rats (male, 180 g to 200 g, Beijing Vital River Laboratory Animal Technology Co., Ltd.) were administered with the test compounds (solvent: 2% DMSO+98% (0.2 g/mL) hydroxypropyl-β-cyclodextrin, dosing volume: 5 mL/kg) by gavage. Blood was collected from the orbits of the rats at different points in time (0.25, 0.5, 1, 2, 4, 8, 24 h) after administration. The collected whole blood was anticoagulated with heparin sodium and centrifuged at 3000 g to obtain rat plasma samples, and methanol was added thereto to precipitate proteins. The drug concentration in rat plasma after administration was determined by HIPLC-MS/MS method. A drug concentration-time curve was plotted and the pharmacokinetic parameters were calculated. Pharmacokinetic behaviors of the compounds after administration in rats were described by means of the parameter estimation of non-compartmental model based on statistical moment theory.

[3] = system: MV4-11 xenografts; experiment: In vivo efficacy in MV4-11 subcutaneous xenograft model
Method: Experimental female NOD-SCID mice, SPF grade, 4 to 5 weeks, were purchased from Beijing Vital River Laboratory Animal Technology Co., Ltd. The mice were intraperitoneally injected with cyclophosphamide at a dose of 100 mg/kg one day before cell inoculation. The human acute monocytic leukemia cell line MV4-11 (1×10^7/0.1 ml/mouse) was subcutaneously inoculated into forelimb axilla of mice to establish a subcutaneous xenograft model. When the tumor volumes reached about 110 mm^3 (10 days after inoculation), the mice were equally grouped according to the tumor volume, with 5 mice in each group, i.e., vehicle group (2% DMSO+98% (0.2 g/mL) hydroxypropyl-β-cyclodextrin) and test drug groups. For the test drug groups, the dose of administration was 100 mg/kg, the dosing volume was 10 mL/kg, the dosing frequency was BID, the tumor diameters were measured twice per week, and the data was recorded. The mice were administered for 11 consecutive days. When the experiment ended, the tumors were dissected and weighed.

[4] = target: PRMT5 (Homo sapiens (Human), UniProt O14744); experiment: radiometric assay for PRMT5 based on FlashPlate technology; format: biochemical; details: PRMT5 5 nM, [3H]-SAM, 60 min at 25° C.; read-out: Enzymology (IC50)
Sequence of PRMT5 (O14744 whole entry): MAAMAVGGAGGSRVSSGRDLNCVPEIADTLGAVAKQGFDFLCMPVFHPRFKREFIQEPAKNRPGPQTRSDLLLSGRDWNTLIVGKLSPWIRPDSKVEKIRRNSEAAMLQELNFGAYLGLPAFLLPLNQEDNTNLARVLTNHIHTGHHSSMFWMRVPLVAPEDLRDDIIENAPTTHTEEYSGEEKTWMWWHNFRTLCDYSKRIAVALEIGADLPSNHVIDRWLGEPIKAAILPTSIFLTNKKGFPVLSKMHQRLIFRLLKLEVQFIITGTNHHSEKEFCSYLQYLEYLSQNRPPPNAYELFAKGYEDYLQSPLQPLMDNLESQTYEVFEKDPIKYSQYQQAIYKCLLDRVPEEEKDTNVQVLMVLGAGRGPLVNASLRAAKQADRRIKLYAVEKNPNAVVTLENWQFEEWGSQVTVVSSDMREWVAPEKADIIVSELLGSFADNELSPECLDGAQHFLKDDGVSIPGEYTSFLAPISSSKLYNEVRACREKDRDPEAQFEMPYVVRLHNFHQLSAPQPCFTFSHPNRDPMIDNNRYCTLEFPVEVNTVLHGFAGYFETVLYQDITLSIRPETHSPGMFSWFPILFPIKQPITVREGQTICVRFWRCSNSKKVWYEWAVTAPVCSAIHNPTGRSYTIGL
Sequence of PRMT5 (Q9BQA1 whole entry partner): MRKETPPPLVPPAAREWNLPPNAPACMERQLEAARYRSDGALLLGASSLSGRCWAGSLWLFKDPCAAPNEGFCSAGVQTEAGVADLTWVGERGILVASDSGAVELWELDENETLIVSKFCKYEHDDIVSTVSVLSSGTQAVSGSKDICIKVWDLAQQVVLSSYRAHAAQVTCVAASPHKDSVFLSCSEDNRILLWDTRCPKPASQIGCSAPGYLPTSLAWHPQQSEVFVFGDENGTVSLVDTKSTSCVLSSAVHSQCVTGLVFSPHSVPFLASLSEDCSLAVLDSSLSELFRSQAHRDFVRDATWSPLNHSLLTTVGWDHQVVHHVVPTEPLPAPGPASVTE
Method: The radiometric assay for PRMT5 based on FlashPlate technology was adopted to determine IC50 of the test compound.
After dissolved in dimethyl sulfoxide respectively, the test compounds were added into an Echo Qualified 384-well plate and diluted to the desired concentrations. The diluted test compounds were transferred from the Echo Qualified 384-well plate to a 384-well reaction plate using an Echo 550 instrument, and dimethyl sulfoxide was transferred into both the control and blank wells. PRMT5 was added to 1×reaction buffer (including 10 mM Tris-HCl; pH 8.0; 0.01% Tween-20; 1 mM DTT) to form a 1.67×enzyme solution (at an enzyme concentration of 5 nM). A polypeptide substrate and [3H]-SAM were added to 1× reaction buffer to form a 2.5× substrate solution (the terminal concentrations of the substrates were 100 nM and 250 nM, respectively). At a volume of 15 μL/well, the 1.67× enzyme solution was added into wells of the 384-well reaction plate. In case of the blank wells, the enzyme solution was replaced with 15 μL of the 1× reaction buffer. The reaction plate was centrifuged at 1000 rpm for 1 min, and incubated at room temperature for 15 min. To each well of the 384-well reaction plate, 10 μL of the 2.5× substrate solution was added, centrifuged at 1000 rpm for 1 min, and reacted at 25° C. for 60 min. To each well of the 384-well reaction plate, 5 μL of reaction stop solution (which was […] cold SAM solution) was added to terminate the reaction. From each well of the test plate, 25 μL was measured and transferred to Flashplate and left at room temperature for 1 h. Thereafter, the Flashplate was washed with 0.1% Tween-20 solution three times. Readings were taken with MicroBeta 2. The data was converted into the inhibition rate data. Inhibition rate=(conversion ratecontrol well−conversion ratecompound well)/(conversion ratecontrol well−conversion rateblank well)×100%. The IC50curves were fitted using XLFit5.4.0.8. The fitting equation was as follows:Y=Bottom+(Top-Bottom)/(1+(IC50/X)^HillSlope).

IC50 [1]: 1.53 nM
AUC(0-t) [2]: 840 ng·h/mL
Cmax [2]: 516 ng/mL
Tmax [2]: 50 min
IC50 [4]: 16 nM
Compound: CON=C(C)C(=O)N1CCC2(CC1)CC(Nc1cc(C(=O)NC[C@H](O)CN3CCc4ccccc4C3)ncn1)C2 [PR-13, (S)-N-(3-(3,4-dihydroisoquinolin-2(1H)-yl)-2-hydroxypropyl)-6-((7-(2-(methoxyimino)propanoyl)-7-azaspiro[3.5]nonan-2-yl)amino)pyrimidine-4-carboxamide]
d9 Tumor Volume (mm^3) ([3]; 100 mg/kg BID, 9th day after administration): 69.7 ± 22.9***# mm^3
Tumor Weight ([3]; 100 mg/kg BID, 11 days, tumors dissected at end): 0.0679 ± 0.0225 g
Tumor weight inhibition rate (%) ([3]; 100 mg/kg BID, 11 days, versus vehicle group): 90.6%
d0 Tumor Volume (mm^3) ([3]; d0, before grouping for administration (baseline)): 165.4 ± 30.2 mm^3
RTV (d9) ([3]; relative tumor volume = d9/d0 tumor volume, 100 mg/kg BID): 0.4 ± 0.1
